Values after ≈ are worked out from the molar mass of the structure shown. Values joined by “and” are separate entries in the source; they are usually repeats but may differ in a detail not shown here. Equal entries are not always repeated. Where two headings read alike, the source gives them in different places.
Legend:
[1] = in vivo; cited from earlier work
[2] = system: Salmonella virchow (SV49); assay: microbe, parasite or virus in culture; type: cell-based
E. coli XL1(pET9d) = assay: microbe, parasite or virus in culture; type: cell-based
[3] = system: Pseudomonas aeruginosa (ATCC 27853); assay: microbe, parasite or virus in culture; type: cell-based
[4] = molecular target: 27-mer 16S A site RNA construct (AS-wt); type: binding
[5] = system: B. anthracis (Sterne strain); assay: microbe, parasite or virus in culture; type: cell-based, Bacillus anthracis
[6] = system: Staphylococcus epidermidis; assay: microbe, parasite or virus in culture; type: cell-based
Bacillus subtilis = assay: microbe, parasite or virus in culture; type: cell-based
E. coli strains = assay: microbe, parasite or virus in culture; type: cell-based
[7] = system: adenylyl(3′-5′)-adenosine (ApA); conditions: cited from earlier work

## NC[C@H]1O[C@H](O[C@H]2[C@H](O[C@@H]3O[C@H](CO)[C@@H](O)[C@H]3O)[C@@H](O)[C@H](N)C[C@@H]2N)[C@H](N)[C@@H](O)[C@@H]1O [ribostamycin]
[1]
  LD50: 260 mg/kg

## NC[C@@H]1O[C@H](O[C@H]2[C@@H](O)[C@H](O[C@@H]3[C@@H](O)[C@H](N)C[C@H](N)[C@H]3O[C@H]3O[C@H](CO)[C@@H](O)[C@H](O)[C@H]3N)O[C@@H]2CO)[C@H](N)[C@@H](O)[C@@H]1O [paromomycin]
[1]
  LD50: 160 mg/kg

## NC[C@@H]1O[C@H](O[C@H]2[C@@H](O)[C@H](O[C@@H]3[C@@H](O)[C@H](N)C[C@H](N)[C@H]3O[C@H]3O[C@H](CO)[C@@H](O)C[C@H]3N)O[C@@H]2CO)[C@H](N)[C@@H](O)[C@@H]1O[C@H]1O[C@H](CO)[C@@H](O)[C@H](O)[C@@H]1O [lividomycin]
[1]
  LD50: 280 mg/kg

## NC[C@H]1O[C@H](O[C@H]2[C@H](O)[C@@H](O[C@H]3O[C@H](CO)[C@@H](O)[C@H](N)[C@H]3O)[C@H](N)C[C@@H]2N)[C@H](O)[C@@H](O)[C@@H]1O [KAN]
[2]
  MIC: 500 to 570 µg/mL
E. coli XL1(pET9d)
  MIC: 260 to 270 µg/mL
[3]
  MIC: 400 to 500 µg/mL

## NCC1O[C@H](OC2C(O)[C@H](OC3C(O)[C@H](N)CC(N)[C@H]3O[C@H]3OC(CN)[C@@H](O)C(O)C3N)O[C@@H]2CO[C@@H]2OC(CO)[C@@H](O)C(O)C2O)C(N)C(O)[C@@H]1O (stereo partly shown) [Compound XII]
[4]; read-out: Kd
  Kd: 1100 ± 200 nM
[5]; Bacillus anthracis, 18 h
  MIC: 8 µg/mL (≈ 10.3 µM)

## NCC1O[C@H](O[C@@H]2C(N)C[C@@H](N)C(O)[C@H]2O[C@@H]2O[C@H](CS[C@@H]3O[C@H](CO)[C@H](O)C3O)[C@H](O[C@H]3O[C@@H](CN)[C@@H](O)C(O)C3N)C2O)C(N)[C@@H](O)[C@@H]1O (stereo partly shown) [Compound XI]
[2]; Salmonella enterica
  MIC: > 250 µg/mL
[6]; Staphylococcus epidermidis, ATCC12228
  MIC: 1.5 to 3 µg/mL (≈ 1.97 to 3.93 µM)
[4]; read-out: Kd
  Kd: 1000 ± 200 nM
Bacillus subtilis; Bacillus subtilis, ATCC6633
  MIC: 1 to 2.5 µg/mL (≈ 1.31 to 3.28 µM)
[5]; Bacillus anthracis, 18 h
  MIC: 2 µg/mL (≈ 2.62 µM)
E. coli XL1(pET9d); Escherichia coli
  MIC: > 200 µg/mL
[3]; Pseudomonas aeruginosa, ATCC27853
  MIC: 200 to 400 µg/mL (≈ 262 to 524 µM)
E. coli strains; Escherichia coli
  MIC: 30 to 40 µg/mL (≈ 39.3 to 52.4 µM)
E. coli strains; Escherichia coli, ATCC25922
  MIC: 25 to 40 µg/mL (≈ 32.8 to 52.4 µM)

## neomycin B
[2]
  MIC: 200 to 250 µg/mL
[6]
  MIC: 0.3 to 0.4 µg/mL
[4]; read-out: binding constant Kd to 16S A site RNA
  Kd: 300 nM
Bacillus subtilis
  MIC: 0.8 to 0.9 µg/mL
[5]
  MIC: 0.25 µg/mL
[1]
  LD50: 24 mg/kg
[7]
  first-order rate constants lower than those reported for natural ribozymes: over 1000 fold
  hydrolysis of ApA faster than 1,3-propanediamine: 3 fold
E. coli XL1(pET9d)
  MIC: 50 to 60 µg/mL
[3]
  MIC: 55 to 60 µg/mL
E. coli strains
  MIC: 4 to 5.5 µg/mL and 8 to 10 µg/mL
